Assay [1] has as its target T1, catalytic subunit of CK2 (CK2α) (Homo sapiens, UniProt P68400).
T1 sequence (P68400 1-335 limits assumed): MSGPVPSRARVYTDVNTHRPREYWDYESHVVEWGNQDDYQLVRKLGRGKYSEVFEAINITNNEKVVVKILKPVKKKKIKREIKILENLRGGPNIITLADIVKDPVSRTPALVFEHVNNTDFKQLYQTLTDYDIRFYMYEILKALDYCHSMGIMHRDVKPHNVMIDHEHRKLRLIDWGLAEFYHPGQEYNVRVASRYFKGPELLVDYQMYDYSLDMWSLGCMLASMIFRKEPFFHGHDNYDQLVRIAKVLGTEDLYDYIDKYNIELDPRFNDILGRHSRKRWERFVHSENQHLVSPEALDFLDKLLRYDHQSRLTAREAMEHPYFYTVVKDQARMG
Kind of assay: Titration of fluorescent probe with CK2α (fluorescence anisotropy). The class given is binding. (Polarisation of emitted light reports the rotation of a fluorescent probe.)
Experimental: The binding of the fluorescent probe of formula VI to the catalytic subunit of protein kinase CK2 (CK2α) was studied at 0.2 nM concentration of the probe and 2-fold dilutions of CK2α in a buffer containing 50 mM HEPES (pH 7.5), 150 mM NaCl, 5 mM DTT, 0.1 mM EDTA and 0.005% tween 20 in 20 μl volumes in 384-well microplate. […] The change in fluorescence anisotropy vs kinase concentration was plotted and KD value was calculated by the application of nonlinear regression analysis to the relationship: A=Af(1−X1)+AbX1, where X1=QX2/[1+X2(Q−1)], where X2={P+KD+kE0−[(P+KD+kE0)^2−4PkE0]^1/2}/2P where A is measured anisotropy, Af is the anisotropy of free probe, Ab is the anisotropy of the probe-CK2α complex, Q is the ratio of fluorescence quantum yield of the probe-CK2α complex and the free probe, P is the concentration of the fluorescent probe, E0 is the nominal concentration of the kinase, k is the fraction of active kinase in enzyme preparation and KD is the dissociation constant of the probe-CK2α complex. Q value of 1.1 was calculated by dividing the total fluorescence intensity of the complex with the total fluorescence intensity of the free probe.

For assay [2], the target named is holoenzyme of protein kinase CK2 (CK2α + CK2β) (Homo sapiens, UniProt P68400). Kind of assay: biochemical.
Chain of holoenzyme of protein kinase CK2 (CK2α + CK2β) (P68400 whole entry): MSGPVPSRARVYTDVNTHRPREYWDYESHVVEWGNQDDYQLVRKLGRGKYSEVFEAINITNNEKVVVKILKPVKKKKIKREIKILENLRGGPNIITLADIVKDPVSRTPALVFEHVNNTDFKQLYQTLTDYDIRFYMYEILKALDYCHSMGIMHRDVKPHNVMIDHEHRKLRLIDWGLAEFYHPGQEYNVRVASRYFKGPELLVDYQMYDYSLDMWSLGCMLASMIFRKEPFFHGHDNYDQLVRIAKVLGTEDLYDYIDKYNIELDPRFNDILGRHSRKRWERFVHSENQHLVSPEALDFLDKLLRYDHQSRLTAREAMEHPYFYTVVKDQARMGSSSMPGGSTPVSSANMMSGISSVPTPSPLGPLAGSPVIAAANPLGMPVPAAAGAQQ
Chain of holoenzyme of protein kinase CK2 (CK2α + CK2β) (P67870 whole entry partner): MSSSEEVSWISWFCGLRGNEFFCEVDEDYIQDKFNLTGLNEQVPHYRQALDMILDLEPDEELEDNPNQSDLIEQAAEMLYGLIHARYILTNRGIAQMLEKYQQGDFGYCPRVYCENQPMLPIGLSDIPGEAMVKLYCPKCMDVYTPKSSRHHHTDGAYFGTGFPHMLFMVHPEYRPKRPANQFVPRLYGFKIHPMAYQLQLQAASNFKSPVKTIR
Experimental: The binding of the fluorescent probe to the holoenzyme of protein kinase CK2 was studied at 0.2 nM concentration of the probe, 2-fold dilutions of CK2α and 100 nM regulatory subunit of CK2 (CK2β) in a buffer containing 50 mM HEPES (pH 7.5), 150 mM NaCl, 5 mM DTT, 0.1 mM EDTA and 0.005% tween 20 in 20 μl volumes in 384-well microplate. […] The change in fluorescence anisotropy vs kinase concentration was plotted and KD-value was calculated by the application of nonlinear regression analysis to the relationship: A=Af(1−X1)+AbX1, where X1=QX2/[1+X2(Q−1)], where X2={P+KD+kE0−[(P+KD+kE0)^2−4PkE0]^1/2}/2P where A is measured anisotropy, Af is the anisotropy of free probe, Ab is the anisotropy of the probe-CK2 holoenzyme complex, Q is the ratio of fluorescence quantum yield of the probe-CK2 holoenzyme complex and the free probe, P is the concentration of the fluorescent probe, E0 is the nominal concentration of CK2α, k is the fraction of active kinase in enzyme preparation and KD is the dissociation constant of the probe-CK2 holoenzyme complex.
The target of assay [3] is T1, catalytic subunit of CK2 (CK2α). Kind of assay: Competition experiment: displacement of fluorescent probe VI from CK2α. It counts as binding. The note with it: for Kd: calculated from I50 and KD of the probe.
[4] abbreviates: fluorescence anisotropy, HEPES pH 7.5, 30° C., probe X also by time gated luminescence, read-out: KD of probe-CK2α complex.
The mark [5] stands for this setting: CK2α 2 nM, fluorescent probe VI 3 nM.
Setting [6] is: CK2α 0.8 nM, fluorescent probe VI 0.5 nM.

Where a SMILES comes first, the peptide text is derived from it. [ ]: non-standard residue; d: D form. The star is where a group is joined. X2 = CN(C)c1ccc2c(-c3ccc(C(=O)*)cc3C(=O)[O-])c3ccc(=[N+](C)C)cc-3oc2c1; X1 = O=C(CCCCCCCn1cnc2c(Br)c(Br)c(Br)c(Br)c21)*

As to `CCN1/C(=C/C=C/C=C/C2=[N+](CC)c3ccc(S(=O)(=O)[O-])cc3C2(C)C)C(C)(CCCC(=O)NCCCC[C@H](NC(=O)[C@H](CC(=O)O)NC(=O)[C@H](CC(=O)O)NC(=O)[C@H](CC(=O)O)NC(=O)[C@H](CC(=O)O)NC(=O)[C@H](CC(=O)O)NC(=O)[C@H](CC(=O)O)NC(=O)CCCCCCCCOc2nc3cc(C(=O)O)ccc3c3cnccc23)C(=O)O)c2cc(S(=O)(=O)O)ccc21` (stereo partly shown) [probe IX], the Kd (commonly the concentration at which binding is half-saturated) in assay [1] (setting [4]) was 0.02 nM.

Regarding `CCN1/C(=C/C=C/C=C/C2=[N+](CC)c3ccc(S(=O)(=O)[O-])cc3C2(C)C)C(C)(CCCC(=O)NCCCC[C@H](NC(=O)[C@H](CC(=O)O)NC(=O)[C@H](CC(=O)O)NC(=O)[C@H](CC(=O)O)NC(=O)[C@H](CC(=O)O)NC(=O)[C@H](CC(=O)O)NC(=O)[C@@H](CC(=O)O)NC(=O)CCCCCCCn2cnc3c(I)c(I)c(I)c(I)c32)C(=O)O)c2cc(S(=O)(=O)O)ccc21` (stereo partly shown) [probe VIII], the Kd in assay [1] (setting [4]) amounted to 0.4 nM.

`CN(C)c1ccc2c(-c3ccc(C(=O)NCCCC[C@H](NC(=O)[C@H](CC(=O)O)NC(=O)[C@H](CC(=O)O)NC(=O)[C@H](CC(=O)O)NC(=O)[C@H](CC(=O)O)NC(=O)[C@H](CC(=O)O)NC(=O)[C@@H](CC(=O)O)NC(=O)CCCCCCCn4cnc5c(Br)c(Br)c(Br)c(Br)c54)C(=O)O)cc3C(=O)[O-])c3ccc(=[N+](C)C)cc-3oc2c1` [probe VII] (X1-[dD]DDDDDK(X2)-OH): in assay [1] (setting [4]), the dissociation constant Kd worked out at 0.4 nM.

Consider `CCN1/C(=C/C=C/C=C/C2=[N+](CC)c3ccc(S(=O)(=O)[O-])cc3C2(C)C)C(C)(CCCC(=O)NCCCC[C@H](NC(=O)[C@H](CC(=O)O)NC(=O)[C@H](CC(=O)O)NC(=O)[C@H](CC(=O)O)NC(=O)[C@H](CC(=O)O)NC(=O)[C@H](CC(=O)O)NC(=O)[C@@H](CC(=O)O)NC(=O)CCCCCCCn2cnc3c(Br)c(Br)c(Br)c(Br)c32)C(=O)O)c2cc(S(=O)(=O)O)ccc21` (stereo partly shown) [probe VI], for which the dissociation constant Kd is 0.2 nM in assay [2] and 0.4 nM in assay [1] (setting [4]).

In assay [1], `CCN1/C(=C/C=C/C=C/C2=[N+](CC)c3ccc(S(=O)(=O)[O-])cc3C2(C)C)C(C)(CCCC(=O)NCCCC[C@H](NC(=O)[C@H](CC(=O)O)NC(=O)[C@H](CC(=O)O)NC(=O)[C@H](CC(=O)O)NC(=O)[C@H](CC(=O)O)NC(=O)[C@H](CC(=O)O)NC(=O)[C@@H](CC(=O)O)NC(=O)CCCCCCCn2ccc3ccc4n[se]nc4c32)C(=O)O)c2cc(S(=O)(=O)O)ccc21` (stereo partly shown) [probe X] yielded a Kd of 10 nM.

As to TBBI-AcOH, in assay [3] (setting [5]), the IC50 (as a rule, the midpoint of a concentration-inhibition curve) worked out at 11500 nM and the Kd was 1500 nM.

In the case of TIBI-AcOH, in assay [3] (setting [6]), the IC50 worked out at 390 nM and the dissociation constant (Kd) was 122 nM.

The record behind these values is patent US9176064B2, “Bisubstrate fluorescent probes for protein kinase CK2” (University of Tartu, priority 2012, dated 2015).
